Assay results taken from patent US9067923B2, “Substituted quinoxalines” (Kyowa Hakko Kirin Co., Ltd., priority 2011, dated 2015).

What was measured:
[1] = test system: CYP3A4; experiment: Induction of CYP3A4 using HepaRG cells (midazolam metabolizing activity); assay type: in vitro ADME; conditions: 1 μmol/L test compound, 72 hours, 1'-hydroxymidazolam formation relative to DMSO negative control
Description: CYP3A4-inducing activity was evaluated using HepaRG cells (Biopredic international). HepaRG cells were suspended in a medium at a concentration of 0.72×10^6 cells/mL and added in a volume of 100 μL to each well of a 96-well collagen coated plate (Biopredic international). The medium used for seeding HepaRG cells was HepaRG Thawing and Seeding Medium 670 (Biopredic international) and the medium used during treatment with a test compound was HepaRG Serum-free Induction Medium 650 (Biopredic international). Three days after the seeding of HepaRG cells, treatment with a test compound was started. After 200 μL of HepaRG Serum-free Induction Medium 650 was added to each well of the 96-well, collagen plate, a test compound dissolved in dimethylsulfoxide (DMSO) was added in a volume of 0.5 μL to each well so that the final concentration was 1 μmol/L. The well to which only DMSO was added was used as a negative control. The medium in the wells containing the test compound was replaced every 24 hours and the treatment with the test compound was continued for 72 hours. The fourth day after the start of the treatment with the test compound, midazolam, which is a typical substrate for CYP3A4, was added and CYP3A4-inducing activity was evaluated by measuring changes in the metabolic activity. The medium was removed by suction and each well was washed twice with PBS (150 μL/well) warmed to 37° C. HepaRG Serum-free Induction Medium 650 containing 20 μmol/L midazolam was warmed to 37° C. and added in a volume of 100 μL to each well. The plate was incubated in a CO2 incubator for 2 hours. At the end of the reaction, 70 μL of the reaction medium was recovered from each well and mixed with 70 μL of a methanol solution containing an internal standard (propranolol, 2 μmol/L). The mixture was centrifuged (at 5000×g at 4° C. for 10 minutes) and the supernatant was used as an analysis sample. The midazolam metabolizing activity was evaluated by measuring the amount of a produced metabolite by CYP3A4, 1′-hydroxymidazolam, by means of a liquid chromatograph-tandem mass spectrometry (LC-MS/MS). Agilent 1100 series (Agilent technologies) was used as the LC device, API2000 (AB sciex) was used as the MSMS device, and HTC PAL (CTC analytics) was used as the autosampler. CAPCELL PAK C18 ACR column (3 μm, 3 mm (I. D.)×35 mm, purchased from Shiseido Co., Ltd.) was used as the analytical column. The mobile phase A was 10 mmol/L aqueous ammonium acetate solution and the mobile phase B was methanol. The gradient conditions were 0 min (B=30%), 0.2 min (B=30%), 2.2 min (B=95%), 4 min (B=95%), 4.01 min (B=30%), 5 min (B=30%). The flow rate was 0.6 mL/min and the sample injection volume was 30 μL. The ions were detected by atmospheric pressure ionization mode using the MSMS device. The detection was performed by multiple reaction monitoring and the 1′-hydroxy midazolam ions were detected at m/z (precursor ion>product ion)=342.1>168.2.
The fold induction by each test compound was determined by using formula A2 below, which is for calculating the fold induction as the ratio of the metabolic activity in the test compound-treatment group to that of the negative control group (DMSO-treatment group).

[2] = test system: production of kynurenine in human gastric cancer cell line KATO-III; experiment: Inhibitory activity on the production of kynurenine (IFN-γ-treated KATO-III cells); assay type: cell-based; conditions: 10 μmol/L test compound, KATO-III cells treated with IFN-γ, 96 hours
Description: This assay was performed by a modification of the method described in J. Biol. Chem., vol. 263, pp. 2041-2048 ([…]). For culture of the human gastric cancer cell line […], RPMI 1640 (GIBCO, 11875) supplemented with 10 vol % FBS (GIBCO, 10091-148, lot. 665285) was used. One μL of a test substance in a DMSO solution was diluted with 199 μL of the culture medium and placed in wells of a 384-well plate (10 μL/well). Next, IFN-γ (Sigma, I-3265) was added to a fresh culture medium to a concentration of 31.25 ng/mL, and KATO-III cells were suspended at 50,000 cells/mL in the culture medium. Forty μL of the suspension was added to each well (2,000 cells/well) and cultured under 5% CO2 at 37° C. for 96 hours. The final concentration of DMSO was limited to 0.1 vol % or less so that DMSO itself may not affect the kynurenine concentration measured in this assay. After the culture, 10 μL of a 30 w/v % aqueous trichloroacetic acid solution was added to each well, and incubation was performed at 65° C. for 30 minutes. The plate was centrifruged at 2,500×g for 5 minutes and 15 μL of the supernatant in each well was transferred into another 384-well plate. To the transferred supernatant, 15 μL of a 2 w/v % solution of p-dimethylaminobenzaldehyde in acetic acid was added, incubation was performed at 65° C. for 20 minutes and the absorbance was measured at 480 nm.
Sample: the absorbance value of the well to which DMSO solution containing a test substance was added and in which the cells were treated with IFN-γ.
Blank: the absorbance value of the well to which DMSO not containing a test substance was added and in which the cells were treated with IFN-γ.
Control: the absorbance value of the well to which DMSO not containing a test substance was added and in which the cells were not treated with IFN-γ.
The inhibition % of each test compound was calculated by formula A1.
In this assay, the expression of IDO in KATO-III cells is induced by IFN-γ treatment, and kynurenine in the culture medium is quantified. The kynurenine concentration in a culture medium is known to increase in proportion to the enzymatic activity of intracellular IDO (for example, J. Biol. Chem., vol. 263, pp. 2041-2048 (1988)). […] The production of kynurenine is known to be inhibited by IDO inhibitors (for example, J. Clin. Invest., vol. 117, No. 5, pp. 1147-1154 ([…])), and thus it is speculated that compounds (I) also have an inhibitory effect on IDO.

Row | SMILES | Fold induction [1] | inhibition at 10 µM [2]
1 | CCCS(=O)(=O)Nc1nc2ccccc2nc1O[C@H](c1ccc(-c2noc(C)n2)nc1)C(F)(F)F [Compound 28, (R)-N-(3-(2,2,2-trifluoro-1-(6-(5-methyl-1,2,4-oxadiaxol-3-yl)pyridin-3-yl)ethoxy)quinoxalin-2-yl)propane-1-sulfonamide] | 1.27 | –
2 | CCCS(=O)(=O)Nc1nc2ccccc2nc1OC(c1ccc(-c2noc(C3CC3)n2)nc1)C(F)(F)F (stereo not shown) [Compound 25, N-(3-(1-(6-(5-cyclopropyl-1,2,4-oxadiazol-3-yl)pyridin-3-yl)-2,2,2-trifluoroethoxy)quinoxalin-2-yl)propane-1-sulfonamide] | 1.41 | ≥ 80%
3 | COCCS(=O)(=O)Nc1nc2ccccc2nc1O[C@H](c1ccc(-c2noc(C3CC3)n2)nc1)C(F)(F)F [Compound 37, (R)-N-(3-(1-(6-(5-cyclopropyl-1,2,4-oxadiasol-3-yl)pyridin-3-yl)-2,2,2-trifluoroethoxy)quinoxalin-2-yl)-2-methoxyethanesulfonamide] | 1.33 | –
4 | COCCS(=O)(=O)Nc1nc2ccccc2nc1OC(c1ccc(-c2noc(C)n2)nc1)C(F)(F)F (stereo not shown) [Compound 27, 2-methoxy-N-(3-(2,2,2-trifluoro-1-(6-(5-methyl-1,2,4-oxadiazol-3-yl)pyridin-3-yl)ethoxy)quinoxalin-2-yl) ethanesulfonamide] | 1.21 | –
5 | COCCS(=O)(=O)Nc1nc2ccccc2nc1O[C@H](c1ccc(-c2cnco2)nc1)C(F)(F)F [Compound 30, (R)-2-methoxy-N-(3-(2,2,2-trifluoro-1-(6-(oxazol-5-yl)pyridin-3-yl)ethoxy)quinoxalin-2-yl)ethanesulfonamide] | 1.12 | ≥ 80%
